Assay results taken from patent US9023789B2, “Amylin analogs and pharmaceutical compositions thereof” (Novo Nordisk A/S, priority 2012, dated 2015).
Numbered stars: 1 amine (or outer) side, 2 acyl side, 3 side chain; on linkers, the order of the positions; unused ones are H or OH. Bridge positions count the residues as written; N and C are the ends. Side chains are listed from the residue outwards. Peptide text beside a SMILES is read from it. * marks the point of attachment. C20 diacid = O=C(O)CCCCCCCCCCCCCCCCCCC(=O)*; γGlu = O=C(O)[C@H](CCC(=O)[*:2])N[*:1]; AEEA = NCCOCCOCC(=O)O

Legend:
Male Sprague-Dawley rats = assay: ASSAY (XI) single subcutaneous administration, food intake monitored for 48 hours in rats; type: in vivo, rat; settings: for Food intake red (%) 0-24 h / Food intake red (%) 24-48 h: single s.c., compared to vehicle; for food intake monitored over 48 hours: single subcutaneous administration, versus vehicle
Method in brief: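 Male Sprague-Dawley rats from Taconic Europe, weighing about 250 g on the test day, were singly housed in an online food intake monitoring system (Ellegaard MBRose, Denmark). Before the study they were acclimatized to a reversed light cycle, with lights on from 10 PM to 10 AM. Each rat then received one subcutaneous dose of the analogue, and data are reported as mean±SEM.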

[1] = ASSAY (IX) pK, determination of T½ in mini-pig; type: in vivo; settings: male, Göttingen, minipig, plasma, iv, 2 nmol/kg
Male Wistar rats = assay: ASSAY (XII) effect from single subcutaneous administration on plasma calcium in rats; type: in vivo, rat; settings: for Plasma calcium red (%) 0-12 h (maximal): single s.c., 30 nmol/kg, compared to vehicle; for suppression of plasma calcium level relative to vehicle: single subcutaneous administration, increasing doses (all doses tested), monitored over 24 hours
Method in brief: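 Male Wistar rats (~250 g), groups of five, received a single subcutaneous dose at time 0. Blood drawn at −15 min, 1, 2, 4, 7, 12 and 24 h; total calcium measured in heparin plasma, reported as mean±SEM.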

[2] = ASSAY (X) pK, determination of T½ in rat; type: in vivo; settings: male, Sprague Dawley, plasma, iv, 20 nmol/kg

half-life [1] [h]	Plasma calcium red (%) 0-12 h (maximal) (Male Wistar rats) [%]	half-life [2] [h]	SMILES	Food intake red (%) 0-24 h (Male Sprague-Dawley rats; 30 nmol/kg) [%]	Food intake red (%) 24-48 h (Male Sprague-Dawley rats; 30 nmol/kg) [%]	food intake monitored over 48 hours (Male Sprague-Dawley rats; 30 nmol/kg)	Food intake red (%) 0-24 h (Male Sprague-Dawley rats; 3 nmol/kg) [%]	Food intake red (%) 24-48 h (Male Sprague-Dawley rats; 3 nmol/kg) [%]	suppression of plasma calcium level relative to vehicle (Male Wistar rats)
49	6	37	CC[C@H](C)[C@H](NC(=O)[C@H](C)NC(=O)CNC(=O)[C@H](Cc1ccccc1)NC(=O)[C@H](CC(N)=O)NC(=O)[C@@H]1CCCN1C(=O)[C@H](CO)NC(=O)[C@H](CO)NC(=O)[C@H](Cc1c[nH]cn1)NC(=O)[C@H](CCCNC(=N)N)NC(=O)[C@H](CC(C)C)NC(=O)[C@H](Cc1ccccc1)NC(=O)[C@H](CCC(=O)O)NC(=O)[C@H](C)NC(=O)[C@H](CC(C)C)NC(=O)[C@H](CCCNC(=N)N)NC(=O)[C@H](CCC(N)=O)NC(=O)[C@@H](NC(=O)[C@H](C)NC(=O)[C@@H]1CSSC[C@H](NC(=O)[C@@H](N)CCCCNC(=O)CC[C@H](NC(=O)CC[C@H](NC(=O)CCCCCCCCCCCCCCCCCCC(=O)O)C(=O)O)C(=O)O)C(=O)N[C@@H](CC(N)=O)C(=O)N[C@@H]([C@@H](C)O)C(=O)N[C@@H](C)C(=O)N[C@@H]([C@@H](C)O)C(=O)N1)[C@@H](C)O)C(=O)N1CCC[C@H]1C(=O)N[C@@H](CO)C(=O)N[C@@H](CO)C(=O)N[C@H](C(=O)N[C@@H](CC(N)=O)C(=O)N[C@H](C(=O)NCC(=O)N1CCC[C@H]1C(=O)N[C@@H](CCC(=O)O)C(=O)N[C@H](C(=O)N[C@@H](Cc1ccc(O)cc1)C(N)=O)[C@@H](C)O)C(C)C)[C@@H](C)O [Example 106] (H-K([γGlu-γGlu-C20 diacid])CNTATCATQRLAEFLRHSSPNFGAIPSSTNVGPETY-NH2; disulfide 2-7; N-terminus assumed)	63	69	reduce food intake			
99.5	12	21	CC[C@H](C)[C@H](NC(=O)[C@H](C)NC(=O)CNC(=O)[C@H](Cc1ccccc1)NC(=O)[C@H](CC(N)=O)NC(=O)[C@@H]1CCCN1C(=O)[C@H](CO)NC(=O)[C@H](CO)NC(=O)[C@H](Cc1c[nH]cn1)NC(=O)[C@H](CCCNC(=N)N)NC(=O)[C@H](CC(C)C)NC(=O)[C@H](Cc1ccccc1)NC(=O)[C@H](CC(=O)O)NC(=O)[C@H](C)NC(=O)[C@H](CC(C)C)NC(=O)[C@H](CCCNC(=N)N)NC(=O)[C@H](CCC(N)=O)NC(=O)[C@@H](NC(=O)[C@H](C)NC(=O)[C@@H]1CSSC[C@H](NC(=O)[C@@H](N)CCCCNC(=O)CC[C@H](NC(=O)CC[C@H](NC(=O)CCCCCCCCCCCCCCCCCCC(=O)O)C(=O)O)C(=O)O)C(=O)N[C@@H](CC(N)=O)C(=O)N[C@@H]([C@@H](C)O)C(=O)N[C@@H](C)C(=O)N[C@@H]([C@@H](C)O)C(=O)N1)[C@@H](C)O)C(=O)N1CCC[C@H]1C(=O)N[C@@H](CO)C(=O)N[C@@H](CO)C(=O)N[C@H](C(=O)N[C@@H](CC(N)=O)C(=O)N[C@H](C(=O)NCC(=O)N[C@@H](CO)C(=O)N[C@@H](CCCNC(=N)N)C(=O)N[C@H](C(=O)N[C@@H](Cc1ccc(O)cc1)C(N)=O)[C@@H](C)O)C(C)C)[C@@H](C)O [Example 52, N-ε-1-{(S)-4-carboxy-4-[(S)-4-carboxy-4-(19-carboxynonadecanoylamino)butyrylamino]butyryl}-[Asp14,Arg17,Pro21,Pro27,Arg35]-human amylin]	63	50	reduces food intake	25	15	None of the doses trigger a notable suppression of the calcium level
104	0	20	CC[C@H](C)[C@H](NC(=O)[C@H](C)NC(=O)CNC(=O)[C@H](Cc1ccccc1)NC(=O)[C@H](CC(N)=O)NC(=O)[C@@H]1CCCN1C(=O)[C@H](CO)NC(=O)[C@H](CO)NC(=O)[C@H](Cc1c[nH]cn1)NC(=O)[C@H](CCCNC(=N)N)NC(=O)[C@H](CC(C)C)NC(=O)[C@H](Cc1ccccc1)NC(=O)[C@H](CC(N)=O)NC(=O)[C@H](C)NC(=O)[C@H](CC(C)C)NC(=O)[C@H](CCCNC(=N)N)NC(=O)[C@H](CCC(N)=O)NC(=O)[C@@H](NC(=O)[C@H](C)NC(=O)[C@@H]1CSSC[C@H](NC(=O)[C@@H](N)CCCCNC(=O)CC[C@H](NC(=O)CC[C@H](NC(=O)CCCCCCCCCCCCCCCCCCC(=O)O)C(=O)O)C(=O)O)C(=O)N[C@@H](CC(N)=O)C(=O)N[C@@H]([C@@H](C)O)C(=O)N[C@@H](C)C(=O)N[C@@H]([C@@H](C)O)C(=O)N1)[C@@H](C)O)C(=O)N1CCC[C@H]1C(=O)N[C@@H](CO)C(=O)N[C@@H](CO)C(=O)N[C@H](C(=O)N[C@@H](CC(N)=O)C(=O)N[C@H](C(=O)NCC(=O)N[C@@H](Cc1c[nH]cn1)C(=O)N[C@@H](CC(N)=O)C(=O)N[C@H](C(=O)N[C@@H](Cc1ccc(O)cc1)C(N)=O)[C@@H](C)O)C(C)C)[C@@H](C)O [Example 86] (H-K([γGlu-γGlu-C20 diacid])CNTATCATQRLANFLRHSSPNFGAIPSSTNVGHNTY-NH2; disulfide 2-7)	48	26	reduces food intake			None of the doses trigger a notable suppression of the calcium level
76			CC[C@H](C)[C@H](NC(=O)[C@H](C)NC(=O)CNC(=O)[C@H](Cc1ccccc1)NC(=O)[C@H](CC(N)=O)NC(=O)[C@@H]1CCCN1C(=O)[C@H](CO)NC(=O)[C@H](CO)NC(=O)[C@H](Cc1c[nH]cn1)NC(=O)[C@H](CCCNC(=N)N)NC(=O)[C@H](CC(C)C)NC(=O)[C@H](Cc1ccccc1)NC(=O)[C@H](CC(N)=O)NC(=O)[C@H](C)NC(=O)[C@H](CC(C)C)NC(=O)[C@H](CCCNC(=N)N)NC(=O)[C@H](CCC(N)=O)NC(=O)[C@@H](NC(=O)[C@H](C)NC(=O)[C@@H]1CSSC[C@H](NC(=O)[C@@H](N)CCCCNC(=O)COCCOCCNC(=O)CC[C@H](NC(=O)CCCCCCCCCCCCCCCCCCC(=O)O)C(=O)O)C(=O)N[C@@H](CC(N)=O)C(=O)N[C@@H]([C@@H](C)O)C(=O)N[C@@H](C)C(=O)N[C@@H]([C@@H](C)O)C(=O)N1)[C@@H](C)O)C(=O)N1CCC[C@H]1C(=O)N[C@@H](CO)C(=O)N[C@@H](CO)C(=O)N[C@H](C(=O)N[C@@H](CC(N)=O)C(=O)N[C@H](C(=O)NCC(=O)N[C@@H](Cc1c[nH]cn1)C(=O)N[C@@H](CC(N)=O)C(=O)N[C@H](C(=O)N[C@@H](Cc1ccc(O)cc1)C(N)=O)[C@@H](C)O)C(C)C)[C@@H](C)O [Example 76] (H-K([AEEA-γGlu-C20 diacid])CNTATCATQRLANFLRHSSPNFGAIPSSTNVGHNTY-NH2; disulfide 2-7; N-terminus assumed)						
81		18	CC[C@H](C)[C@H](NC(=O)[C@H](C)NC(=O)CNC(=O)[C@H](Cc1ccccc1)NC(=O)[C@H](CC(N)=O)NC(=O)[C@@H]1CCCN1C(=O)[C@H](CO)NC(=O)[C@H](CO)NC(=O)[C@H](Cc1c[nH]cn1)NC(=O)[C@H](CCCNC(=N)N)NC(=O)[C@H](CC(C)C)NC(=O)[C@H](Cc1ccccc1)NC(=O)[C@H](CC(N)=O)NC(=O)[C@H](C)NC(=O)[C@H](CC(C)C)NC(=O)[C@H](CCCNC(=N)N)NC(=O)[C@H](CCC(N)=O)NC(=O)[C@@H](NC(=O)[C@H](C)NC(=O)[C@@H]1CSSC[C@H](NC(=O)[C@@H](N)CCCCNC(=O)CC[C@H](NC(=O)CCCCCCCCCCCCCCCCCCC(=O)O)C(=O)O)C(=O)N[C@@H](CC(N)=O)C(=O)N[C@@H]([C@@H](C)O)C(=O)N[C@@H](C)C(=O)N[C@@H]([C@@H](C)O)C(=O)N1)[C@@H](C)O)C(=O)N1CCC[C@H]1C(=O)N[C@@H](CO)C(=O)N[C@@H](CO)C(=O)N[C@H](C(=O)N[C@@H](CC(N)=O)C(=O)N[C@H](C(=O)NCC(=O)N[C@@H](Cc1c[nH]cn1)C(=O)N[C@@H](CC(N)=O)C(=O)N[C@H](C(=O)N[C@@H](Cc1ccc(O)cc1)C(N)=O)[C@@H](C)O)C(C)C)[C@@H](C)O [Example 77]						
